Paper PMC7930564, “First Case of Glyphosate Resistance in Bromus catharticus Vahl.: Examination of Endowing Resistance Mechanisms” (Frontiers in Plant Science, 2021)

Tested on: T1, EPSPS (5-enolpyruvylshikimate-3-phosphate synthase), glyphosate-resistant (R) population
T1 construct: native enzyme in leaf extract (total soluble protein) of R plants, not recombinant; no target-site substitution at codons 101, 102, 103, 106, 144, 192; homoeologous copies not resolved
Experiment: phosphate release, EnzChek Phosphate Assay Kit, […] nm, leaf extract
Assay type: biochemical, Bromus catharticus
Conditions: substrates phosphoenolpyruvate and shikimate-3-phosphate; glyphosate 0 to 5,000 μM; Figure 6 legend fit prints 0.16; read-out: I50

O=C(O)CNCP(=O)(O)O [glyphosate, N-phosphonomethyl glycine]
IC50: 150 nM
